Experiment [1] relates to OT-1 CD8+ T cells with SIINFEKL-loaded MC38 tumor cells. Description: Murine cytotoxic T lymphocyte assay (IFN-γ, OT-1 CTL with MC38 tumor cells). The class given is cell-based, mouse. Conditions: read-out: msCTL INFg IC50. From the text: 5. Murine Cytotoxic T Lymphocyte Assay
An antigen-specific cytolytic T-cell (CTL) assay was developed to evaluate functionally the ability of DGKα and DGKζ inhibitors to enhance effector T cell mediated tumor cell killing activity. CD8+ T-cells isolated from the OT-1 transgenic mouse recognize antigen presenting cells, MC38, that present the ovalbumin derived peptide […]. Recognition of the cognate antigen initiates the cytolytic activity of the OT-1 antigen-specific CD8+ T cells.
Functional CTL cells were generated as follows: OT-1 splenocytes from 8-12 week old mice were isolated and expanded in the presence of the […] peptide at 1 μg/mL and mIL2 at 10 U/mL. After three days, fresh media with […] was added. On day 5 of the expansion, the CD8+ T cells were isolated and ready for use. Activated CTL cells may be stored frozen for 6 months. Separately, one million MC38 tumor cells were pulsed with 1 μg/mL of […]-OVA peptide for 3 hours at 37° C. The cells were washed (3×) with fresh media to remove excess peptide. Finally, CTL cells that were pretreated with DGK inhibitors for 1 hour in a 96-well U bottom plate were combined with the antigen loaded MC38 tumor cells at a 1:10 ratio. The cells were then spun at 700 rpm for 5 min and placed in an incubator overnight at 37° C. After 24 hours, the supernatant was collected for analysis of IFN-γ cytokine levels by AlphaLisa purchased from Perkin Elmer.

In the next experiment the test system is Human venous whole blood. Description: Human whole blood IFN-γ assay.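 Note: blood from healthy donors exposed to compound for 1 h before stimulation with anti-CD3 and anti-CD28 at 1 µg/mL each, IFN-γ quantified in supernatant by AlphaLISA.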 The class given is cell-based. As to conditions: normalized to 3 μM reference compound with anti-CD3 plus anti-CD28 as 100% activation.
The target of the next experiment is T1, human DGKζ (Homo sapiens, UniProt Q13574).
T1 construct: TVMV protease cleavage site (C); Hexa-His (C); made in house; host or cells: Sf9 insect cells (baculovirus, Bac-to-Bac)
T1 sequence (Q13574 with tags, fused parts or gaps isoform Q13574-4): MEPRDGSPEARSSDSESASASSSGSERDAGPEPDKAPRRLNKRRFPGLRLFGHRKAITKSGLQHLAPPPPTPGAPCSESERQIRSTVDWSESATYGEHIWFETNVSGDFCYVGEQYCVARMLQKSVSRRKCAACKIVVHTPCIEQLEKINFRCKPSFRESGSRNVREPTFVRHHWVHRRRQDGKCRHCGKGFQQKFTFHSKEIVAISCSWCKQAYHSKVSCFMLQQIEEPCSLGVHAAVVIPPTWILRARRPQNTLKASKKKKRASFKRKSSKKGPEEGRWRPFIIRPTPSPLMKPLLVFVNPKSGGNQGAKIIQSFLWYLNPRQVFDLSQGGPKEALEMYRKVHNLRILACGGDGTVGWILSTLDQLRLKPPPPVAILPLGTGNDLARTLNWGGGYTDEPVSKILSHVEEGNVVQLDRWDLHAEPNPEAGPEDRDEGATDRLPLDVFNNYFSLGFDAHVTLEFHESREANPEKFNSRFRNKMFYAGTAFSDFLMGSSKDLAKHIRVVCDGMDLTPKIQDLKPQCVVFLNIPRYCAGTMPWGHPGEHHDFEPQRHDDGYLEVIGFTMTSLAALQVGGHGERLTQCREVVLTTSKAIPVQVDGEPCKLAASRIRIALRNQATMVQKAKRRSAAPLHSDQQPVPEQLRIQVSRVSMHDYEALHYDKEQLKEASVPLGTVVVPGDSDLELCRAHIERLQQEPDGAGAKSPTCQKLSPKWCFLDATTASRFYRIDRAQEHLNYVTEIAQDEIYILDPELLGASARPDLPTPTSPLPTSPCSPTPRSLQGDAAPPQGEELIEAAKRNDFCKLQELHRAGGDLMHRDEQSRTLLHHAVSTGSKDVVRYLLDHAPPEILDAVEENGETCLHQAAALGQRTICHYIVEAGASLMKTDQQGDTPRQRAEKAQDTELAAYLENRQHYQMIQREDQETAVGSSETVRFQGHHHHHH
Description: DGKζ LIPGLO assay (extruded liposome substrate), in vitro DGK inhibition. As to conditions: liposome (LIPGLO) assay; read-out: DGKz LIPGLO IC50. Type of experiment: biochemical.

The target in the next experiment is T2, human DGKα (Homo sapiens, UniProt P23743).
T2 construct: TVMV protease cleavage site (C); Hexa-His (C); made in house; host or cells: Sf9 insect cells (baculovirus, Bac-to-Bac)
T2 sequence (P23743 with tags, fused parts or gaps): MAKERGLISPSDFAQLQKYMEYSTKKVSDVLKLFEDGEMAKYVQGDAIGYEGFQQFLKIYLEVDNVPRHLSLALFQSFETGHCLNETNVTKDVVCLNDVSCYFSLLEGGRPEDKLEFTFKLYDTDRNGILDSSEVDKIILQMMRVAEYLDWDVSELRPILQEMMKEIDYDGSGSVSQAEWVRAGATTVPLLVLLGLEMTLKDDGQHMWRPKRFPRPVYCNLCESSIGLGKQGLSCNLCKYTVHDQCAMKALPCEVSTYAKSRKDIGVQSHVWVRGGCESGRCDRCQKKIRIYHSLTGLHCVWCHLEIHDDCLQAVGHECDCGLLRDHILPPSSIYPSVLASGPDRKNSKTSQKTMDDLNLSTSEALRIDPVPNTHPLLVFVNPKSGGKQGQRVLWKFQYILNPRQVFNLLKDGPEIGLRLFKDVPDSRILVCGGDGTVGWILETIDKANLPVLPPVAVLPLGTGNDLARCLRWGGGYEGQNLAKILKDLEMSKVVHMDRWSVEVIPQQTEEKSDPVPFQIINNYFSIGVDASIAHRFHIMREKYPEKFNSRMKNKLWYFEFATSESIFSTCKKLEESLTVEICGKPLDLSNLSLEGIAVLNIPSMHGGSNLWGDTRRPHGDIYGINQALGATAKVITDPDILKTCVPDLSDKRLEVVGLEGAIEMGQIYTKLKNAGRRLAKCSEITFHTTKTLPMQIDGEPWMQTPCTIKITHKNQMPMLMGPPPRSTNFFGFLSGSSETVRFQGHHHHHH
Description: DGKα LIPGLO assay (extruded liposome substrate), in vitro DGK inhibition. Type of experiment: biochemical. Conditions: liposome (LIPGLO) assay; read-out: DGKa LIPGLO IC50.

[2] abbreviates: Homo sapiens, 24 h, human whole blood, read-out: INFg Whole Blood Normalized Agonist EC50.
[3] abbreviates: human whole blood, read-out: INFg Whole Blood Normalized Agonist EC50.

Each structure is given as a SMILES string. Where a name gives a salt, the structure may show the parent alone. Read-outs that look alike come from different tables or passages of the source.

Description for Human venous whole blood: Human Whole Blood IFN-γ Assay
Human venous whole blood (22.5 μL per well), obtained from healthy donors, was pre-treated with compounds for one hour at 37° C. in a humidified 95% air/5% CO2 incubator. The blood was stimulated with 2.5 μL anti-human CD3 and anti-CD28 mAb at a final concentration of 1 μg/mL each for 24 hours at 37° C. IFN-γ in the supernatants was measured using AlphLISA kit (Cat # AL217).

As to `Cn1c(=O)cc(N2CCN(C(c3ccc(F)cc3)c3ccc(F)cc3)CC2C2CC2)c2nc(C#N)ccc21` (single isomer, unassigned) [Example 23, 8-(4-(bis(4-fluorophenyl)methyl)-2-cyclopropylpiperazin-1-yl)-5-methyl-6-oxo-5,6-dihydro-1,5-naphthyridine-2-carbonitrile], the IC50 (usually the concentration that gives 50% inhibition) worked out at 1.4 µM in experiment [1], 100 µM at human DGKζ and 240 µM at human DGKα. For the same compound, the EC50 (as a rule, the concentration giving half of the maximal effect) in the experiment with Human venous whole blood (setting [2]) is 10 µM.

`Cn1c(=O)cc(N2CCN(C(c3ccc(F)cc3)c3ccc(F)cc3)CC2C2CC2)c2nc(C#N)ccc21` (single isomer, unassigned) [Example 24, 8-(4-(bis(4-fluorophenyl)methyl)-2-cyclopropylpiperazin-1-yl)-5-methyl-6-oxo-5,6-dihydro-1,5-naphthyridine-2-carbonitrile]: the IC50 in experiment [1] came to 0.2 µM; at human DGKζ, 3.9 µM; on human DGKα, 1.5 µM. Moreover, the 50% effective concentration (EC50) in the experiment on Human venous whole blood (setting [3]) came out at 13 µM.

As to `COC(=O)C1CN(c2cc(=O)n(C)c3ccc(C#N)nc23)CCN1C(c1ccc(F)cc1)c1ccc(F)cc1OC` (single isomer, unassigned) [Example 69, Methyl 4-(6-cyano-1-methyl-2-oxo-1,2-dihydro-1,5-naphthyridin-4-yl)-1-((4-fluoro-2-methoxyphenyl)(4-fluorophenyl)methyl)piperazine-2-carboxylate], the IC50 in experiment [1] was determined as 0.22 µM; at human DGKζ it was 0.85 µM; on human DGKα, 21 µM. Also, in the experiment with Human venous whole blood (setting [3]), the EC50 was determined as 2.5 µM.

Take `COC(=O)C1CN(c2cc(=O)n(C)c3ccc(C#N)nc23)CCN1C(c1ccc(F)cc1)c1ccc(F)cc1OC` (single isomer, unassigned) [Example 71, Methyl 4-(6-cyano-1-methyl-2-oxo-1,2-dihydro-1,5-naphthyridin-4-yl)-1-((4-fluoro-2-methoxyphenyl)(4-fluorophenyl)methyl)piperazine-2-carboxylate]: the half-inhibitory concentration (IC50) in experiment [1] was 3.8 µM; on human DGKζ it was 52 µM; at human DGKα, 240 µM. Besides, the 50% effective concentration (EC50) in the experiment on Human venous whole blood (setting [3]) is 10 µM.

Regarding `COC(=O)C1CN(c2cc(=O)n(C)c3ccc(C#N)nc23)CCN1C(c1ccc(F)cc1)c1ccc(F)cc1OC` (single isomer, unassigned) [Example 72, Methyl 4-(6-cyano-1-methyl-2-oxo-1,2-dihydro-1,5-naphthyridin-4-yl)-1-((4-fluoro-2-methoxyphenyl)(4-fluorophenyl)methyl)piperazine-2-carboxylate], the 50% inhibitory concentration (IC50) in experiment [1] worked out at 0.078 µM; on human DGKζ, 0.76 µM; on human DGKα it was 40 µM. Besides, the EC50 in the experiment with Human venous whole blood (setting [3]) came to 1.2 µM.

Turning to `COC(=O)C1CN(c2c([N+](=O)[O-])c(=O)n(C)c3ccc(C#N)nc23)CCN1C(c1ccc(F)cc1)c1ccc(F)cc1` (single isomer, unassigned) [Example 73, Methyl 1-(bis(4-fluorophenyl)methyl)-4-(6-cyano-1-methyl-3-nitro-2-oxo-1,2-dihydro-1,5-naphthyridin-4-yl)piperazine-2-carboxylate], the half-maximal inhibitory concentration (IC50) in experiment [1] (Mus musculus, MC-38) was 0.15 µM; at human DGKζ it was 0.31 µM; on human DGKα it was 0.52 µM. Further, the concentration giving a half-maximal response (EC50) with Human venous whole blood (setting [2]) came out at 0.29 µM.

Consider `COC(=O)C1CN(c2c(F)c(=O)n(C)c3ccc(C#N)nc23)CCN1C(c1ccc(F)cc1)c1ccc(F)cc1` (single isomer, unassigned) [Example 74, Methyl 1-(bis(4-fluorophenyl)methyl)-4-(6-cyano-3-fluoro-1-methyl-2-oxo-1,2-dihydro-1,5-naphthyridin-4-yl)piperazine-2-carboxylate], for which the 50% inhibitory concentration (IC50) in experiment [1] came to 0.29 µM; at human DGKζ, 8.6 µM; on human DGKα it was 23 µM. Moreover, the half-maximal effective concentration (EC50) in the experiment with Human venous whole blood (setting [2]) was 8.6 µM.

As to `Cn1c(=O)cc(N2CCN(C(c3ccc(F)cc3)c3ccc(F)cc3)C(C(C)(C)F)C2)c2nc(C#N)ccc21` (single isomer, unassigned) [Example 80, 8-(4-(bis(4-fluorophenyl)methyl)-3-(2-fluoropropan-2-yl)piperazin-1-yl)-5-methyl-6-oxo-5,6-dihydro-1,5-naphthyridine-2-carbonitrile], the figures for the IC50 (in experiment [1]; on human DGKζ; on human DGKα) were 3.1 µM, 240 µM and 0.67 µM, respectively. Further, the half-maximal effective concentration (EC50) in the experiment on Human venous whole blood (setting [2]) was 10 µM.

As for `CC(C)C(=O)C1CN(c2cc(=O)n(C)c3ccc(C#N)nc23)CCN1C(c1ccc(F)cc1)c1ccc(F)cc1` (single isomer, unassigned) [Example 86, 8-(4-(bis(4-fluorophenyl)methyl)-3-isobutyrylpiperazin-1-yl)-5-methyl-6-oxo-5,6-dihydro-1,5-naphthyridine-2-carbonitrile], the half-inhibitory concentration (IC50) in experiment [1] is 0.2 µM; at human DGKζ, 1.2 µM; at human DGKα, 7.4 µM. Also, in the experiment on Human venous whole blood (setting [2]), the EC50 is 2.9 µM.

Consider `CC(C)C(C)(O)C1CN(c2cc(=O)n(C)c3ccc(C#N)nc23)CCN1C(c1ccc(F)cc1)c1ccc(F)cc1` (single isomer, unassigned) [Example 89, 8-(4-(bis(4-fluorophenyl)methyl)-3-(2-hydroxy-3-methylbutan-2-yl)piperazin-1-yl)-5-methyl-6-oxo-5,6-dihydro-1,5-naphthyridine-2-carbonitrile], for which the IC50 in experiment [1] came to 2.6 µM; on human DGKζ it was 77 µM; on human DGKα, 240 µM. Moreover, the EC50 in the experiment on Human venous whole blood (setting [3]) came out at 20 µM.

For the compound `CC(C)C(C)(F)C1CN(c2cc(=O)n(C)c3ccc(C#N)nc23)CCN1C(c1ccc(F)cc1)c1ccc(F)cc1` (single isomer, unassigned) [Example 90, 8-(4-(bis(4-fluorophenyl)methyl)-3-(2-fluoro-3-methylbutan-2-yl)piperazin-1-yl)-5-methyl-6-oxo-5,6-dihydro-1,5-naphthyridine-2-carbonitrile, TFA], the half-maximal inhibitory concentration (IC50) in experiment [1] (Mus musculus, MC-38) stood at 4.8 µM; at human DGKζ, 240 µM; on human DGKα it was 240 µM. Moreover, the concentration giving a half-maximal response (EC50) with Human venous whole blood (setting [2]) is 20 µM.

In the case of `COc1cc(F)ccc1C(c1ccc(F)cc1)N1C[C@H](C)N(c2c(C#N)c(=O)n(C)c3ccc(C#N)nc23)C[C@H]1C` (single isomer, unassigned) [Example 112], the IC50 in experiment [1] (Mus musculus, MC-38) amounted to 1.6 µM; on human DGKζ, 2.6 µM; at human DGKα it was 77 µM. Besides, the 50% effective concentration (EC50) in the experiment with Human venous whole blood (setting [2]) amounted to 7 µM.

With `COc1cc(F)ccc1C(c1ccc(F)cc1)N1C[C@H](C)N(c2c([N+](=O)[O-])c(=O)n(C)c3ccc(C#N)nc23)C[C@H]1C` (single isomer, unassigned) [Example 122], the IC50 was found to be 3.8 µM in experiment [1] (Mus musculus, MC-38); 4.8 µM at human DGKζ; 210 µM at human DGKα. Besides, the EC50 in the experiment on Human venous whole blood (setting [2]) was 10 µM.

As for `CC1C(C)N(C(c2ccc(F)cc2)c2ccc(F)cc2)CCN1c1cc(=O)n(C)c2ccc(C#N)nc12` (single isomer, unassigned) [Example 123, 8-(4-(bis(4-fluorophenyl)methyl)-2,3-dimethylpiperazin-1-yl)-5-methyl-6-oxo-5,6-dihydro-1,5-naphthyridine-2-carbonitrile], the IC50 is 2.4 µM in experiment [1], 240 µM on human DGKζ and 2.4 µM on human DGKα. Moreover, the EC50 with Human venous whole blood (setting [3]) came out at 35 µM.

Consider `CC1C(C)N(C(c2ccc(F)cc2)c2ccc(F)cc2)CCN1c1cc(=O)n(C)c2ccc(C#N)nc12` (single isomer, unassigned) [Example 124, 8-(4-(bis(4-fluorophenyl)methyl)-2,3-dimethylpiperazin-1-yl)-5-methyl-6-oxo-5,6-dihydro-1,5-naphthyridine-2-carbonitrile], for which the IC50 in experiment [1] amounted to 0.39 µM; on human DGKζ, 15 µM; at human DGKα, 9.9 µM. In addition, the concentration giving a half-maximal response (EC50) in the experiment on Human venous whole blood (setting [3]) turned out to be 4.8 µM.

In the case of `COc1cc(F)ccc1C(c1ccc(F)cc1)N1CCN(c2cc(=O)n(C)c3ccc(C#N)nc23)[C@@H](C)C1` (single isomer, unassigned) [Example 129], the concentration for half-maximal inhibition (IC50) in experiment [1] (Mus musculus, MC-38) came out at 0.71 µM; at human DGKζ, 0.82 µM; at human DGKα, 12 µM. In addition, the EC50 with Human venous whole blood (setting [2]) was 5.4 µM.

On to `COc1cc(F)ccc1C(c1ccc(F)cc1)N1CCN(c2cc(=O)n(C)c3ccc(C#N)nc23)[C@@H](C)C1` (single isomer, unassigned) [Example 130], for which the figures for the IC50 (in experiment [1]; at human DGKζ; on human DGKα) were 0.75 µM, 0.96 µM and 18 µM, respectively. Also, in the experiment on Human venous whole blood (setting [3]), the half-maximal effective concentration (EC50) worked out at 4 µM.

Take `CC[C@H]1CN(C(c2ccc(F)cc2)c2ccc(F)cc2)CCN1c1cc(=O)n(C)c2ccc(C#N)nc12` [Example 127, (S)-8-(4-(bis(4-fluorophenyl)methyl)-2-ethylpiperazin-1-yl)-5-methyl-6-oxo-5,6-dihydro-1,5-naphthyridine-2-carbonitrile]: the half-inhibitory concentration (IC50) in experiment [1] (Mus musculus, MC-38) was found to be 0.36 µM. In addition, in the experiment with Human venous whole blood (Homo sapiens, 24 h, read-out: INFg Whole Blood Normalized Agonist EC50, human whole blood), the half-maximal effective concentration (EC50) came to 4.3 µM.

These data come from patent publication US10669272B2, “Substituted naphthyridinone compounds useful as T cell activators” (BRISTOL-MYERS SQUIBB COMPANY, priority 2018, dated 2020).
